Measured values reported in ChEMBL document CHEMBL1137234, “Correlation between brain/plasma ratios and efficacy in neuropathic pain models of selective metabotropic glutamate receptor 1 antagonists” (Bioorg Med Chem Lett, 2006).
pIC50: −log10 of the molar value.

How the values were obtained:
[1] = target: Metabotropic glutamate receptor 1 (Rattus norvegicus, UniProt P23385); experiment: Antagonist activity at rat mGluR1 expressed in 1321N1 cells; format: functional, cell-based
[2] = target: Metabotropic glutamate receptor 5 (Rattus norvegicus, UniProt P31424); experiment: Antagonist activity at rat mGluR5 expressed in 1321N1 cells; format: functional, cell-based
Chain of Metabotropic glutamate receptor 5 (P31424 whole entry): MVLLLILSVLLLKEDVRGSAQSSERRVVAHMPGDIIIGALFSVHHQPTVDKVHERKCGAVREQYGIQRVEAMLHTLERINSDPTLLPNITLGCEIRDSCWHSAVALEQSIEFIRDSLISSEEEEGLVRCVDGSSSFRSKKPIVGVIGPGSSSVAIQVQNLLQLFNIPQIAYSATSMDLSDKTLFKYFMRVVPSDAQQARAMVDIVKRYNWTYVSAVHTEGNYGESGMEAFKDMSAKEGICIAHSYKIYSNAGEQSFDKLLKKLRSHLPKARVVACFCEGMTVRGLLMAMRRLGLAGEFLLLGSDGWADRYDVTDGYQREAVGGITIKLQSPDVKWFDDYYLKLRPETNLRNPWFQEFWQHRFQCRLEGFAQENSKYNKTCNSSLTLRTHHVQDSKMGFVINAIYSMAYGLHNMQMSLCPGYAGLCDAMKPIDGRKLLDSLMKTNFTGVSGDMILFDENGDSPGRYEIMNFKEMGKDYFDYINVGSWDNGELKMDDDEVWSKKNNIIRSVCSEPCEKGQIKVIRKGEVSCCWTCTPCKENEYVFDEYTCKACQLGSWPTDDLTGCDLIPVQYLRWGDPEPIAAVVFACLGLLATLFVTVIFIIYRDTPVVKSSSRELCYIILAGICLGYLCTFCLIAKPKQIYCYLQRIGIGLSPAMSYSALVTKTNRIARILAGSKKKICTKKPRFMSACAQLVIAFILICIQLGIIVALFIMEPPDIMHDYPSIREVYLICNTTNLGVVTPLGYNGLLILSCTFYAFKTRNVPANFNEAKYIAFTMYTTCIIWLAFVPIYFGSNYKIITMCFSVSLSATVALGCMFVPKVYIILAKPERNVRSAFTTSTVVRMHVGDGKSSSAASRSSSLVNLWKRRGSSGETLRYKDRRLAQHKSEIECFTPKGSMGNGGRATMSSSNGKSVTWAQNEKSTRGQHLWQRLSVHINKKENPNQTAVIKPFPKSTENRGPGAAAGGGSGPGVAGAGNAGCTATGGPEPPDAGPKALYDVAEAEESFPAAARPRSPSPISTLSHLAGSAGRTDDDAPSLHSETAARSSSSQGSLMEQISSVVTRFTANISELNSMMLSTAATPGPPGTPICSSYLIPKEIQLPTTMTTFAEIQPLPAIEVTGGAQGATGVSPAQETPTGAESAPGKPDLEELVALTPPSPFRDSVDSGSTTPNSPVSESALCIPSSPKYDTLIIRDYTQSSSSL

Rattus norvegicus [3] = experiment: Efficacy in rat Chung spinal nerve L5/L6 ligation pain model after 30 mins at 100 umol/kg, ip; format: functional
Rattus norvegicus [4] = experiment: Drug level in rat brain at 30 umol/kg, ip; format: ADME, organism-based; details: in vivo
Rattus norvegicus [5] = species on record: Rattus norvegicus; experiment: Free drug level in rat brain; format: ADME, organism-based; details: in vivo
Rattus norvegicus [6] = species on record: Rattus norvegicus; experiment: Protein binding in rat brain; format: ADME, organism-based; details: in vivo
Rattus norvegicus [7] = experiment: Efficacy in ip dosed rat Chung spinal nerve L5/L6 ligation pain model after 30 mins; format: functional; details: 0.5 h
Rattus norvegicus [8] = experiment: Efficacy in ip dosed rat CFA model after 30 mins; format: functional; details: 0.5 h
[9] = target: Metabotropic glutamate receptor 4 (Homo sapiens, UniProt Q14833); experiment: Antagonist activity at human mGluR4 expressed in 1321N1 cells; format: functional, cell-based
Chain of Metabotropic glutamate receptor 4 (Q14833 whole entry): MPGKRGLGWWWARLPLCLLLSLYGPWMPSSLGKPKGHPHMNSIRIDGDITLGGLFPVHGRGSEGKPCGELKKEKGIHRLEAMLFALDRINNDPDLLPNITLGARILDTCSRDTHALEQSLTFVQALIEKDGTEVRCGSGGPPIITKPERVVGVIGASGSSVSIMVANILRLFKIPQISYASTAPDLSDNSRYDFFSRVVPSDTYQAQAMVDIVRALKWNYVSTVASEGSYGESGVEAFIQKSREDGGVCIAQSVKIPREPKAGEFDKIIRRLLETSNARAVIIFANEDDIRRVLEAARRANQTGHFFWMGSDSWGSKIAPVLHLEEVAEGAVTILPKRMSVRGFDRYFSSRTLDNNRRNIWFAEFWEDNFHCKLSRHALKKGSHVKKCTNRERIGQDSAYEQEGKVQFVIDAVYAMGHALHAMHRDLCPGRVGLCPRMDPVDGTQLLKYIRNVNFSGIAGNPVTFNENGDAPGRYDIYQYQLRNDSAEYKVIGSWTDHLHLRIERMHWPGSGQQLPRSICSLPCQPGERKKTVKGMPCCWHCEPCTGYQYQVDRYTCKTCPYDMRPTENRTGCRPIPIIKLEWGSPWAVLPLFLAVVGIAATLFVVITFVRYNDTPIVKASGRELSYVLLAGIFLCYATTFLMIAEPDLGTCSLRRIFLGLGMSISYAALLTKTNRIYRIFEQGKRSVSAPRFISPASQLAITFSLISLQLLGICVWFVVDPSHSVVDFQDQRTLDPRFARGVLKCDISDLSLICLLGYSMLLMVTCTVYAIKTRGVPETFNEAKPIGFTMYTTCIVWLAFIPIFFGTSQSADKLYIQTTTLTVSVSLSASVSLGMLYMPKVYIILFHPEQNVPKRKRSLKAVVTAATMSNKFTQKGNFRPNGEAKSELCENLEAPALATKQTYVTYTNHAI

Rattus norvegicus [10] = experiment: Efficacy in ip dosed rat osteoarthritic pain model after 30 mins; format: functional; details: 0.5 h
[11] = target: Metabotropic glutamate receptor 2 (Homo sapiens, UniProt Q14416); experiment: Antagonist activity at human mGluR2 expressed in 1321N1 cells; format: functional, cell-based
Chain of Metabotropic glutamate receptor 2 (Q14416 whole entry): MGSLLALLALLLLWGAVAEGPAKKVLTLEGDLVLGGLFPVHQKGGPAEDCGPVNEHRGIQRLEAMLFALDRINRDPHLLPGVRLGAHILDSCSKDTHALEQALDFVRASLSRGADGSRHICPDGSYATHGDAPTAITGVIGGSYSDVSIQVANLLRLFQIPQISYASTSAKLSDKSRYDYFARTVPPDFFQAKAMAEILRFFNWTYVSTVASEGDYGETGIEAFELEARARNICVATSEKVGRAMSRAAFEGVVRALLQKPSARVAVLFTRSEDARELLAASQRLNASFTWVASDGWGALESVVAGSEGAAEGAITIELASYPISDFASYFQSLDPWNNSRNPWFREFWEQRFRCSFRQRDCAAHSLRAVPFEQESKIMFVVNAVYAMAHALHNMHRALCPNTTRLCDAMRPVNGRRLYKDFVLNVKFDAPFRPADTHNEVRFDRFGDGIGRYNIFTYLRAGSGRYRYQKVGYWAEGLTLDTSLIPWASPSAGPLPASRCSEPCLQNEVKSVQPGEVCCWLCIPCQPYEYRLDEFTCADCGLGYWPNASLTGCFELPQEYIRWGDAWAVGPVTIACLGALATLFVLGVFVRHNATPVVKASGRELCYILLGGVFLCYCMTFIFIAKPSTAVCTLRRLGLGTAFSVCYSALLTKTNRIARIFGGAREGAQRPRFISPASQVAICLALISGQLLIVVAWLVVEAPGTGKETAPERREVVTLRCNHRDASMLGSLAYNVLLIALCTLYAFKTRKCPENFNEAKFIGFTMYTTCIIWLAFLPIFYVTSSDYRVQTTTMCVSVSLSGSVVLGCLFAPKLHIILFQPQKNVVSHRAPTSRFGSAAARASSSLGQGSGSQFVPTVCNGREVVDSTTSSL

Rattus norvegicus [12] = experiment: Efficacy in ip dosed rat skin incision model after 30 mins; format: functional; details: 0.5 h
Rattus norvegicus [13] = experiment: Efficacy in ip dosed rat formalin model after 30 mins; format: functional; details: 0.5 h
Rattus norvegicus [14] = experiment: Activity in ip dosed rat Rotarod model; format: functional
[15] = target: Metabotropic glutamate receptor 7 (Homo sapiens, UniProt Q14831); experiment: Antagonist activity at human mGluR7 expressed in 1321N1 cells; format: functional, cell-based
Chain of Metabotropic glutamate receptor 7 (Q14831 whole entry): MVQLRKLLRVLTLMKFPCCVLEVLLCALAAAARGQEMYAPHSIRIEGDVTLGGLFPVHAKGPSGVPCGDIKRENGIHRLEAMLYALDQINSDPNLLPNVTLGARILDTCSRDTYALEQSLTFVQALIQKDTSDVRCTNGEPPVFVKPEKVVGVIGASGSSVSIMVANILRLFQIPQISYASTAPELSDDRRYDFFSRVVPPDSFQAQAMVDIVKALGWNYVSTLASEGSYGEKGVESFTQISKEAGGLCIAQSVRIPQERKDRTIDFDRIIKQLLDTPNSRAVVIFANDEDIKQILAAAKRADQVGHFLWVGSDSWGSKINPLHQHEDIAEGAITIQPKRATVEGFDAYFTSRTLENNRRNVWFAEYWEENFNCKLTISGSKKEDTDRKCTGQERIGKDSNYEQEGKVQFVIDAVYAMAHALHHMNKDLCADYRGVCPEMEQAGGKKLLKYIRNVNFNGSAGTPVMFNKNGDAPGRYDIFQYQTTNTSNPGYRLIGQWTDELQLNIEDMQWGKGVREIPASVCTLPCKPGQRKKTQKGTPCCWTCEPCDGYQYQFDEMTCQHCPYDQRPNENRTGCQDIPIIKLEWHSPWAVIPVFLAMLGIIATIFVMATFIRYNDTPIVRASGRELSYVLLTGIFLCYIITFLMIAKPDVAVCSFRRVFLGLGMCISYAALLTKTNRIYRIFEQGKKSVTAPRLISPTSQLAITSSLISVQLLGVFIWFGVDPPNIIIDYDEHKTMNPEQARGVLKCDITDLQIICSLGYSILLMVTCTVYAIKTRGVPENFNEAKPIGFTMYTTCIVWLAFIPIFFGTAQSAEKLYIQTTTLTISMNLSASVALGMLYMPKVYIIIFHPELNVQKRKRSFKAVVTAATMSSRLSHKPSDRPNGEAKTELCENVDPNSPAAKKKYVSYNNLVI

Rattus norvegicus [16] = experiment: Efficacy in ip dosed rat Carrageenan model after 30 mins; format: functional; details: 0.5 h
Rattus norvegicus [17] = experiment: Activity in ip dosed rat locomotor model; format: functional

Chain of Metabotropic glutamate receptor 1 (P23385 whole entry): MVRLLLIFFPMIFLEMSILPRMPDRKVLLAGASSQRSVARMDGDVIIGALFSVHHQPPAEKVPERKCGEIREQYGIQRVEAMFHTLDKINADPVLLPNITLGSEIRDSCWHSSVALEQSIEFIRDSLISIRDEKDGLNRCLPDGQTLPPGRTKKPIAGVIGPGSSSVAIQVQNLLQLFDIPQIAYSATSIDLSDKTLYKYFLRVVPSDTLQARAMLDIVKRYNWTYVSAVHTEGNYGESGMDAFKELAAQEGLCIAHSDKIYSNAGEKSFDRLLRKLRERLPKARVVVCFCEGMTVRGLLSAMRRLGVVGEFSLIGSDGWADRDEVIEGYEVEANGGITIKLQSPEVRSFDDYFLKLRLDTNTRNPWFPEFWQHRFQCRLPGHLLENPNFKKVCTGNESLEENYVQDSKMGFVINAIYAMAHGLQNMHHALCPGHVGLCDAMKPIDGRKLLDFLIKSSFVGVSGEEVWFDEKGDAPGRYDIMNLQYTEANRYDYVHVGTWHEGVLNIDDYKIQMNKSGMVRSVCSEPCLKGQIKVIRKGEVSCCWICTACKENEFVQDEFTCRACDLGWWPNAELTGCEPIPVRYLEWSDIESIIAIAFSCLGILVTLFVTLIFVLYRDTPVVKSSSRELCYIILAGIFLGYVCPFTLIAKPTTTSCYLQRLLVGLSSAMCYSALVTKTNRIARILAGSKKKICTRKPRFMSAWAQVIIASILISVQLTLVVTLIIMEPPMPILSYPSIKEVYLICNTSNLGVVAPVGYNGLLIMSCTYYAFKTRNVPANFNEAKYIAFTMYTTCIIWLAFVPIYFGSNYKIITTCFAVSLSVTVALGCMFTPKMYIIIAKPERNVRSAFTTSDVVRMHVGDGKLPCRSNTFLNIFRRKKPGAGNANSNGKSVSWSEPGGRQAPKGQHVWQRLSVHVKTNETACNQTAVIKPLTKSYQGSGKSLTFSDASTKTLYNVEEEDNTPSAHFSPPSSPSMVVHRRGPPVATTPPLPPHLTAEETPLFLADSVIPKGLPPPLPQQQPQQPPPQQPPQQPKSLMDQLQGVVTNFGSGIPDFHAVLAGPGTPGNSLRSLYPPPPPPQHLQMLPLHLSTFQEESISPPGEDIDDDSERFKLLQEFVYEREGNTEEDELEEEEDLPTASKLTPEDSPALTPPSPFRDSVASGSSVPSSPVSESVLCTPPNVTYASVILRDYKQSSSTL

Row | SMILES | pIC50 [1] | pIC50 [2] | Efficacy (Rattus norvegicus [3]) | Activity (Rattus norvegicus [4]) | Activity (Rattus norvegicus [5]) | Activity (Rattus norvegicus [6]) | ED50 (Rattus norvegicus [7]) | ED50 (Rattus norvegicus [8]) | pIC50 [9] | ED50 (Rattus norvegicus [10]) | pIC50 [11] | ED50 (Rattus norvegicus [12]) | ED50 (Rattus norvegicus [13]) | ED50 (Rattus norvegicus [14]) | pIC50 [15] | ED50 (Rattus norvegicus [16]) | ED50 (Rattus norvegicus [17])
1 | C[N+](C)([O-])c1ccnc2sc3c(=O)n(N4CCCCCC4)cnc3c12 | 7.48 | < 5.00 | 12% | – | – | – | – | – | – | – | – | – | – | – | – | – | –
2 | Cc1ccc(-n2cnc3c(sc4cncc(N(C)C)c43)c2=O)cc1F | 7.68 | < 5.00 | 72% | 125 ng/g | 0.13 ng/g | 99.9% | 55 µmol/kg | – | – | – | – | – | – | – | – | – | –
3 | CCc1ccc(-n2cnc3c(sc4nccc(N(C)C)c43)c2=O)cc1 | 8.30 | 5.88 | 41% | 1180 ng/g | 25.5 ng/g | 97.8% | > 100 µmol/kg | 15 µmol/kg | < 5.00 | 29 µmol/kg | < 5.00 | 47 µmol/kg | 19 µmol/kg | > 300 µmol/kg | < 5.00 | 11 µmol/kg | > 100 µmol/kg
4 | CCc1ccc(-n2cnc3c(sc4nccc(N(C)CCc5ccccn5)c43)c2=O)cc1 | 7.28 | < 5.00 | 11% | – | – | – | – | – | – | – | – | – | – | – | – | – | –
5 | CN(C)c1ccnc2sc3c(=O)n(N4CCCCCC4)cnc3c12 | 9.00 | < 5.00 | 100% | 851 ng/g | – | – | 22 µmol/kg | – | – | – | – | – | – | – | – | – | –
